For nine compounds, TGI and GI50 results are on record in PubChem BioAssay (NCI).

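Cultured in 96-well plates, cells were exposed to test compound for 48 hours across five concentrations. GI50 = concentration required for 50% inhibition of growth. TGI marks complete inhibition of growth.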

Test systems include CAKI-1 renal; RXF 393 renal; SF-539 CNS; OVCAR-3 ovarian; CCRF-CEM leukemia; MALME-3M melanoma; SR leukemia; HL-60(TB) leukemia; NCI/ADR-RES ovarian; MOLT-4 leukemia.
Experiment in all cases: NCI anticancer screen, dose series, 48 h

Turning to `N#CC1(C2SCCS2=O)C2=C(C(=O)c3ccccc3C2=O)N2CCCC21` (stereo not drawn), the TGI turned out to be 15 µM in the assay with CAKI-1 renal; 10.9 µM with RXF 393 renal; 9.11 µM with SF-539 CNS; 2.04 µM with OVCAR-3 ovarian; 24.5 µM in the assay with CCRF-CEM leukemia; 1.27 µM with MALME-3M melanoma. Moreover, the TGI in the assay with SR leukemia amounted to 20.7 µM; in the assay on HL-60(TB) leukemia, 6.79 µM; in the assay on NCI/ADR-RES ovarian, 10.2 µM; in the assay with MOLT-4 leukemia, 19.7 µM.
As to `CC(C)c1ccccc1S(=O)c1ccccc1C(C)(C)O` (stereo not drawn), the TGI in the assay on CAKI-1 renal, in the assay with RXF 393 renal, in the assay with SF-539 CNS, in the assay with OVCAR-3 ovarian, in the assay with CCRF-CEM leukemia and with MALME-3M melanoma was greater than 100 µM throughout. Moreover, the TGI in the assay on SR leukemia, in the assay on HL-60(TB) leukemia, in the assay on NCI/ADR-RES ovarian and in the assay with MOLT-4 leukemia was greater than 100 µM in each case.
For the compound `O=C(Nc1ccc(Cl)cc1F)c1cc(Br)ccc1O`, the GI50 in the assay with CAKI-1 renal is 0.505 µM; in the assay on RXF 393 renal, 0.799 µM; with SF-539 CNS, 0.804 µM; with OVCAR-3 ovarian it was 0.604 µM; with CCRF-CEM leukemia it was 2.37 µM; in the assay with MALME-3M melanoma, 0.595 µM. Further, the GI50 is 0.7 µM in the assay on SR leukemia, 0.919 µM in the assay with HL-60(TB) leukemia, 1.39 µM in the assay with NCI/ADR-RES ovarian and 2.34 µM in the assay on MOLT-4 leukemia. The TGI with CAKI-1 renal was 4.19 µM; with RXF 393 renal, 3.75 µM; in the assay on SF-539 CNS, 7.29 µM; with OVCAR-3 ovarian it was 14.2 µM; in the assay on CCRF-CEM leukemia it was greater than 27.6 µM; in the assay on MALME-3M melanoma, 2.65 µM. Further, the TGI was greater than 23 µM in the assay with SR leukemia, 3.77 µM in the assay on HL-60(TB) leukemia, 14.6 µM in the assay with NCI/ADR-RES ovarian and 7.87 µM in the assay with MOLT-4 leukemia.
Regarding `N#CC1Nc2ccccc2[C@@H](O)C1O` (stereo partly drawn), the TGI in the assay on CAKI-1 renal, in the assay on RXF 393 renal, with SF-539 CNS, with OVCAR-3 ovarian, in the assay on CCRF-CEM leukemia and in the assay with MALME-3M melanoma was greater than 100 µM throughout. In addition, the TGI in the assay on SR leukemia, with HL-60(TB) leukemia, with NCI/ADR-RES ovarian and with MOLT-4 leukemia was greater than 100 µM in each case.
With `COc1ccc(CNc2c3ccccc3nc3ccccc23)cc1OC`, the GI50 in the assay on CAKI-1 renal is 1.87 µM; in the assay on RXF 393 renal, 1.49 µM; in the assay with SF-539 CNS, 2.82 µM; in the assay on OVCAR-3 ovarian it was 2.64 µM; in the assay on CCRF-CEM leukemia, 2.82 µM; in the assay with MALME-3M melanoma, 1.95 µM. Further, the GI50 with SR leukemia was 1.34 µM; with HL-60(TB) leukemia it was 2.96 µM; in the assay on NCI/ADR-RES ovarian, 1.75 µM; with MOLT-4 leukemia, 2.25 µM. For the same compound, the TGI in the assay with CAKI-1 renal worked out at 6.33 µM; in the assay with RXF 393 renal it was 3.64 µM; with SF-539 CNS it was 11.3 µM; in the assay with OVCAR-3 ovarian it was 8.39 µM; in the assay on CCRF-CEM leukemia, 19.2 µM; in the assay with MALME-3M melanoma, 4.98 µM. Also, the TGI in the assay on SR leukemia was 7.2 µM; with HL-60(TB) leukemia, 10 µM; with NCI/ADR-RES ovarian, 6.61 µM; with MOLT-4 leukemia, 25.6 µM.
For `O=C(O)c1cc(O)c2c(c1)C(C1c3cc(C(=O)O)cc(O)c3C(=O)c3c(OC4OC(CO)C(O)C(O)C4O)cccc31)c1cccc(OC3OC(CO)C(O)C(O)C3O)c1C2=O` (stereo not drawn), the GI50 with CAKI-1 renal, with RXF 393 renal, in the assay on SF-539 CNS, in the assay with OVCAR-3 ovarian, in the assay with CCRF-CEM leukemia and with MALME-3M melanoma was greater than 100 µM in each case. The GI50 in the assay with SR leukemia, in the assay on HL-60(TB) leukemia, in the assay on NCI/ADR-RES ovarian and in the assay with MOLT-4 leukemia was greater than 100 µM each time. Also, the TGI in the assay with CAKI-1 renal, in the assay on RXF 393 renal, with SF-539 CNS, with OVCAR-3 ovarian, in the assay on CCRF-CEM leukemia and with MALME-3M melanoma was greater than 100 µM each time. Further, the TGI in the assay on SR leukemia, in the assay with HL-60(TB) leukemia, in the assay with NCI/ADR-RES ovarian and in the assay with MOLT-4 leukemia was greater than 100 µM each time.
As for `CN(C)c1ccc2nc3ccc(=O)cc-3sc2c1`, the GI50 is 2.24 µM in the assay with CAKI-1 renal; 2.92 µM in the assay with RXF 393 renal; 0.287 µM in the assay with SF-539 CNS; 0.598 µM in the assay with OVCAR-3 ovarian; 0.694 µM in the assay with CCRF-CEM leukemia; 0.333 µM in the assay on MALME-3M melanoma. Also, the GI50 in the assay with SR leukemia was 0.884 µM; in the assay on HL-60(TB) leukemia it was 0.77 µM; in the assay on NCI/ADR-RES ovarian, 0.665 µM; with MOLT-4 leukemia it was 1.4 µM. In addition, the TGI is greater than 90.7 µM with CAKI-1 renal; 36.9 µM in the assay with RXF 393 renal; greater than 28.1 µM in the assay on OVCAR-3 ovarian; 58.1 µM with CCRF-CEM leukemia; 4.18 µM in the assay with MALME-3M melanoma; greater than 46.5 µM with SR leukemia. For the same compound, the values for the TGI in the assay with HL-60(TB) leukemia, in the assay on NCI/ADR-RES ovarian and with MOLT-4 leukemia were 3.94 µM, greater than 100 µM and 26 µM, respectively.
As for `N#CC(C(=O)/C(=N/Nc1nc(=S)[nH]n1N)C(C#N)c1ccccc1)c1ccccc1` (stereo not drawn), the TGI with CAKI-1 renal, in the assay on RXF 393 renal, in the assay on SF-539 CNS, in the assay on OVCAR-3 ovarian, in the assay with CCRF-CEM leukemia and in the assay with MALME-3M melanoma was greater than 100 µM each time. In addition, the TGI in the assay on SR leukemia, in the assay on HL-60(TB) leukemia and with NCI/ADR-RES ovarian was greater than 100 µM each time.
For the compound `Cc1ccc(N(CSc2ccc(Cl)cc2)CSc2ccc(Cl)cc2)cc1`, the GI50 was 0.829 µM in the assay on CAKI-1 renal; 1.73 µM with RXF 393 renal; 1.02 µM in the assay on SF-539 CNS; 2.75 µM in the assay on OVCAR-3 ovarian; 0.246 µM in the assay on CCRF-CEM leukemia; 3.65 µM with MALME-3M melanoma. In addition, the GI50 with SR leukemia was 1.04 µM; with HL-60(TB) leukemia it was 1.65 µM; with NCI/ADR-RES ovarian, 1.38 µM; with MOLT-4 leukemia, 0.381 µM. For the same compound, the TGI came out at 8.16 µM with CAKI-1 renal; 7.57 µM in the assay on RXF 393 renal; 2.59 µM in the assay on SF-539 CNS; 11.5 µM in the assay on OVCAR-3 ovarian; 2.5 µM with CCRF-CEM leukemia; 18.4 µM in the assay on MALME-3M melanoma. Further, the TGI was found to be 4.86 µM in the assay on SR leukemia, 3.65 µM in the assay on HL-60(TB) leukemia, 9.04 µM with NCI/ADR-RES ovarian and 2.63 µM in the assay with MOLT-4 leukemia.
